In patent publication US5002959A, “BU-4146T antibiotic” (Bristol-Myers Squibb Company, priority 1989, dated 1991):
Values after ≈ are worked out from the molar mass of the structure shown. Like-named read-outs stand apart in the source and are kept apart here.

Legend:
Piricularia oryzae = experiment: microbe, parasite or virus in culture; assay type: cell-based
Aspergillus fumigatus = experiment: Antifungal MIC by serial agar dilution method; assay type: cell-based
Experimental: (§1) The minimum inhibitory concentrations (MICs) of BU-4146T were determined against various bacteria and fungi by the serial agar dilution method. Nutrient agar (Eiken) was used for bacteria and Sabouraud dextrose agar (Difco) for fungi. The inoculum size was adjusted to 10^2 -10^4 cfu/ml for bacteria and 10^3 cfu/ml for fungi.

Sporothrix schenckii = experiment: Antifungal MIC by serial agar dilution method; assay type: cell-based; conditions: strain IF08158
Experimental: as §1

Petriellidium boydii = experiment: Antifungal MIC by serial agar dilution method; assay type: cell-based; conditions: Scedosporium boydii; strain IF08078
Experimental: as §1

[1] = test system: Trichophyton mentagrophytes; experiment: Antifungal MIC by serial agar dilution method; assay type: cell-based
Experimental: as §1

Candida albicans = experiment: Antifungal MIC by serial agar dilution method; assay type: cell-based
Experimental: as §1

Cryptococus neoformans = experiment: Antifungal MIC by serial agar dilution method; assay type: cell-based; conditions: Cryptococcus neoformans
Experimental: as §1

Fusarium moniliforme = experiment: Antifungal MIC by serial agar dilution method; assay type: cell-based; conditions: Fusarium verticillioides; strain A2284
Experimental: as §1

Aspergillus flavus = experiment: Antifungal MIC by serial agar dilution method; assay type: cell-based; conditions: strain FA21436
Experimental: as §1

Mucor spinosus = experiment: Antifungal MIC by serial agar dilution method; assay type: cell-based; conditions: strain IF05317
Experimental: as §1

Blastomyces dermatidis = experiment: Antifungal MIC by serial agar dilution method; assay type: cell-based; conditions: strain IF08144
Experimental: as §1

[2] = test system: DNA synthesis in B16-F10 melanoma cells; experiment: Inhibition of macromolecule synthesis in B16-F10 melanoma cells: DNA; assay type: cell-based, murine; conditions: for IC50: Mus musculus, B16-F10, 3H-thymidine, 3.5 hours
Experimental: (§2) Inhibitory effects of BU-4146T on the macromolecule (DNA, RNA and protein) synthesis were determined in cultured B16-FlO melanoma cells. B16-FlO cells (10^5 cells/ml) were incubated with the compound at 37° C. for 3.5 hours (for DNA synthesis) or 4 hours (for RNA and protein synthesis). Labelled presursor, ^3 H-thymidine, ^14 C-uridine or ^3 H-leucine was added to the culture and further incubated for 30 minutes (for DNA) or 60 minutes (for RNA and protein). After washing with chilled 5% trichloroacetic acid solution, the radio activity incorporated into the acid-insoluble fraction of the tumor cells was determined by a liquid scintillation counter.

[3] = test system: RNA synthesis in B16-F10 melanoma cells; experiment: Inhibition of macromolecule synthesis in B16-F10 melanoma cells: RNA; assay type: cell-based, murine; conditions: Mus musculus, 14C-uridine, 4 hours
Experimental: as §2

[4] = test system: protein synthesis in B16-F10 melanoma cells; experiment: Inhibition of macromolecule synthesis in B16-F10 melanoma cells: protein; assay type: cell-based, murine; conditions: Mus musculus, 3H-leucine, 4 hours
Experimental: as §2

[5] = Cytotoxicity of hydrogenated derivative; assay type: cell-based
[6] = test system: Moser (human colorectal carcinoma) cells; experiment: In vitro cytotoxicity; assay type: cell-based; conditions: 72 hours
Experimental: (§3) B16-FIO, Moser and HCT-116 cells were harvested and implanted into wells of 96-well microtiter plate with test materials at the inoculum sizes of 3×10^4, 6×10^4 and 6×10^4 cell/ml, respectively. They were incubated at 37° C. in a humidified atmosphere of 5% carbon dioxide and 95% air for 72 hours. The cytotoxicity against the tumor cells was determined colorimetrically at 540 nm after staining viable cells.

[7] = test system: B16-F10 (murine melanoma) cells; experiment: In vitro cytotoxicity; assay type: cell-based; conditions: Mus musculus; B16-F10, 72 hours
Experimental: as §3

[8] = test system: HCT-116 (human colon carcinoma) cells; experiment: In vitro cytotoxicity; assay type: cell-based; conditions: HCT-116, 72 hours
Experimental: as §3

fungi = experiment: Antifungal activity as a whole (serial agar dilution); assay type: cell-based; conditions: versus streptimidone
Experimental: as §1

Solubility = assay type: physicochemical
[9] = test system: murine and human tumor cells (B16-F10, Moser, HCT-116); experiment: In vitro cytotoxicity, comparison over the tumor cell lines; assay type: cell-based; conditions: versus mitomycin C; approximately
Experimental: as §3

Gram-negative bacteria = experiment: Antibacterial activity by serial agar dilution method; assay type: cell-based; conditions: at 100 mcg/ml
Experimental: as §1

Gram-positive bacteria = experiment: as above; assay type: cell-based; conditions: at 100 mcg/ml
Experimental: as §1

[10] = Trichophyton mentagrophytes, strain D155, read-out: MIC

For `C=C/C(C)=C/[C@H](C)C(=O)C[C@H](O)CC1CC(=O)NC(=O)C1` [Streptimidone, reference compound], the MIC (Piricularia oryzae; read-out: MIC) was > 100 µg/mL, the MIC (Aspergillus fumigatus; strain IAM2034) was > 100 µg/mL and the MIC (Aspergillus fumigatus; strain IAM2530) was > 100 µg/mL. For the same molecule, the MIC (Sporothrix schenckii) was > 100 µg/mL, the MIC (Petriellidium boydii) was > 100 µg/mL and the MIC [1, 10] was > 100 µg/mL. The MIC ([1]; strain No. 4329) was > 100 µg/mL, the MIC (Candida albicans; strain A9540) was > 100 µg/mL and the MIC (Candida albicans; strain IAM4888) was > 100 µg/mL. For the same molecule, the MIC (Cryptococus neoformans; strain D49) was 50 µg/mL (≈ 170 µM), the MIC (Cryptococus neoformans; strain IAM4514) was 50 µg/mL (≈ 170 µM) and the MIC (Fusarium moniliforme) was 50 µg/mL (≈ 170 µM). For the same molecule, the MIC (Aspergillus flavus) was > 100 µg/mL, the MIC (Mucor spinosus) was > 100 µg/mL and the MIC (Blastomyces dermatidis) was > 100 µg/mL.

In the case of `CO[C@@]12[C@H](COC(N)=O)C3=C(C(=O)C(C)=C(N)C3=O)N1C[C@@H]1N[C@@H]12` [Mitomycin C, reference compound], the IC50 [2] is reported as 1.6 µg/mL (≈ 4.79 µM), the IC50 [3] is reported as 11 µg/mL (≈ 32.9 µM) and the IC50 [4] is reported as 60 µg/mL (≈ 179 µM).

In the case of `C/C(=C\C(C)C(=O)CC(O)CC1CC(=O)NC(=O)C1)C1OC(=O)CCCCCCCCC1C` (stereo not shown) [hexahydro-BU-4146T], the cytotoxicity ([5]; in words) is reported as “weak cytotoxicity” and the “cytotoxicity, times weaker than that of BU-4146T” value ([5]; versus BU-4146T) is reported as “about one hundred”.

With `C/C(=C\C(C)C(=O)CC(O)CC1CC(=O)NC(=O)C1)C1OC(=O)/C=C/CC/C=C/C=C\C1C` (stereo not shown) [BU-4146T] the MIC (Piricularia oryzae) was 3.1 µg/mL (≈ 6.77 µM), the IC50 [2] was 0.023 µg/mL (≈ 0.0503 µM) and the “potency in DNA and protein synthesis, times higher than in RNA synthesis” value ([2]; in terms of IC50, DNA and protein versus RNA) was ~200 times. The IC50 [6] was 0.047 µg/mL (≈ 0.103 µM), the IC50 [7] was 0.03 µg/mL (≈ 0.0656 µM) and the IC50 [8] was 0.014 µg/mL (≈ 0.0306 µM). The MIC (Aspergillus fumigatus; strain IAM2034) was 1.6 µg/mL (≈ 3.5 µM), the MIC (Aspergillus fumigatus; strain IAM2530) was 0.8 µg/mL (≈ 1.75 µM) and the MIC (Sporothrix schenckii) was 100 µg/mL (≈ 219 µM). It also gave an MIC (Petriellidium boydii) of 3.1 µg/mL (≈ 6.77 µM), an MIC [1, 10] of 100 µg/mL (≈ 219 µM) and an MIC ([1]; strain No. 4329) of 100 µg/mL (≈ 219 µM). The MIC (Candida albicans; strain A9540) was > 100 µg/mL, the MIC (Candida albicans; strain IAM4888) was > 100 µg/mL and the MIC (Cryptococus neoformans; strain D49) was 3.1 µg/mL (≈ 6.77 µM). For the same molecule, the MIC (Cryptococus neoformans; strain IAM4514) was 3.1 µg/mL (≈ 6.77 µM), the MIC (Fusarium moniliforme) was 0.8 µg/mL (≈ 1.75 µM) and the MIC (Aspergillus flavus) was 3.1 µg/mL (≈ 6.77 µM). For the same molecule, the MIC (Mucor spinosus) was 1.6 µg/mL (≈ 3.5 µM), the MIC (Blastomyces dermatidis) was 12.5 µg/mL (≈ 27.3 µM) and the IC50 [3] was 4.2 µg/mL (≈ 9.18 µM). The “antifungal activity, times more potent than streptimidone” value (fungi) was 30-100 times, the solubility in n-hexane (Solubility; n-hexane) was “practically insoluble” and the “solubility in acetonitrile, n-butanol, methanol, ethyl acetate, chloroform and dimethyl sulfoxide” value (Solubility; organic solvents) was “readily soluble”. For the same molecule, the solubility in water (Solubility; water) was “practically insoluble”, the “IC50 values, times superior to those of mitomycin C” value [9] was 20-60 times and the IC50 [4] was 0.024 µg/mL (≈ 0.0525 µM). The “inhibitory activity against Gram-negative bacteria” value (Gram-negative bacteria) was “did not show inhibitory activity” and the “inhibitory activity against Gram-positive bacteria” value (Gram-positive bacteria) was “did not show inhibitory activity”.
